Source: ChEMBL document CHEMBL4190187, “Discovery of pyrazolopyrimidine derivatives as novel inhibitors of ataxia telangiectasia and rad3 related protein (ATR)” (Bioorg Med Chem Lett, 2017)
Several values for one entry are separate records, joined by “and”; a condition that tells them apart may be missing. Identical values can stand only once.

What was measured:
[1] = target: Serine/threonine-protein kinase ATR (Homo sapiens, UniProt Q13535); test: Inhibition of human recombinant FLAG-tagged full length ATR expressed in mammalian cell line co-expressing human recombinant cMyc-tagged full length ATRIP
[2] = Metabolic stability in human liver microsomes assessed as compound remaining at 1 uM in presence of NADPH as cofactor measured after 30 mins by LC-MS/MS method; assay type: ADME, microsome; settings: read-out: Stability
[3] = Metabolic stability in mouse liver microsomes assessed as compound remaining at 1 uM in presence of NADPH as cofactor measured after 30 mins by LC-MS/MS method; assay type: ADME, microsome; settings: read-out: Stability
[4] = Metabolic stability in rat liver microsomes assessed as compound remaining at 1 uM in presence of NADPH as cofactor measured after 30 mins by LC-MS/MS method; assay type: ADME, microsome; settings: read-out: Stability
[5] = target: T1, Tyrosine-protein kinase BTK (Homo sapiens, UniProt Q06187); test: Inhibition of BTK (unknown origin)
[6] = target: Phosphatidylinositol 4,5-bisphosphate 3-kinase catalytic subunit delta isoform (Homo sapiens, UniProt O00329); test: Inhibition of PI3Kdelta (unknown origin)
[7] = target: Phosphatidylinositol 4,5-bisphosphate 3-kinase catalytic subunit delta isoform (Homo sapiens) (UniProt O00329); test: Inhibition of PI3Kdelta (unknown origin) at 100 nM
[8] = target: T1, Tyrosine-protein kinase BTK; test: Inhibition of BTK (unknown origin) at 100 nM

Serine/threonine-protein kinase ATR, sequence (Q13535 whole entry): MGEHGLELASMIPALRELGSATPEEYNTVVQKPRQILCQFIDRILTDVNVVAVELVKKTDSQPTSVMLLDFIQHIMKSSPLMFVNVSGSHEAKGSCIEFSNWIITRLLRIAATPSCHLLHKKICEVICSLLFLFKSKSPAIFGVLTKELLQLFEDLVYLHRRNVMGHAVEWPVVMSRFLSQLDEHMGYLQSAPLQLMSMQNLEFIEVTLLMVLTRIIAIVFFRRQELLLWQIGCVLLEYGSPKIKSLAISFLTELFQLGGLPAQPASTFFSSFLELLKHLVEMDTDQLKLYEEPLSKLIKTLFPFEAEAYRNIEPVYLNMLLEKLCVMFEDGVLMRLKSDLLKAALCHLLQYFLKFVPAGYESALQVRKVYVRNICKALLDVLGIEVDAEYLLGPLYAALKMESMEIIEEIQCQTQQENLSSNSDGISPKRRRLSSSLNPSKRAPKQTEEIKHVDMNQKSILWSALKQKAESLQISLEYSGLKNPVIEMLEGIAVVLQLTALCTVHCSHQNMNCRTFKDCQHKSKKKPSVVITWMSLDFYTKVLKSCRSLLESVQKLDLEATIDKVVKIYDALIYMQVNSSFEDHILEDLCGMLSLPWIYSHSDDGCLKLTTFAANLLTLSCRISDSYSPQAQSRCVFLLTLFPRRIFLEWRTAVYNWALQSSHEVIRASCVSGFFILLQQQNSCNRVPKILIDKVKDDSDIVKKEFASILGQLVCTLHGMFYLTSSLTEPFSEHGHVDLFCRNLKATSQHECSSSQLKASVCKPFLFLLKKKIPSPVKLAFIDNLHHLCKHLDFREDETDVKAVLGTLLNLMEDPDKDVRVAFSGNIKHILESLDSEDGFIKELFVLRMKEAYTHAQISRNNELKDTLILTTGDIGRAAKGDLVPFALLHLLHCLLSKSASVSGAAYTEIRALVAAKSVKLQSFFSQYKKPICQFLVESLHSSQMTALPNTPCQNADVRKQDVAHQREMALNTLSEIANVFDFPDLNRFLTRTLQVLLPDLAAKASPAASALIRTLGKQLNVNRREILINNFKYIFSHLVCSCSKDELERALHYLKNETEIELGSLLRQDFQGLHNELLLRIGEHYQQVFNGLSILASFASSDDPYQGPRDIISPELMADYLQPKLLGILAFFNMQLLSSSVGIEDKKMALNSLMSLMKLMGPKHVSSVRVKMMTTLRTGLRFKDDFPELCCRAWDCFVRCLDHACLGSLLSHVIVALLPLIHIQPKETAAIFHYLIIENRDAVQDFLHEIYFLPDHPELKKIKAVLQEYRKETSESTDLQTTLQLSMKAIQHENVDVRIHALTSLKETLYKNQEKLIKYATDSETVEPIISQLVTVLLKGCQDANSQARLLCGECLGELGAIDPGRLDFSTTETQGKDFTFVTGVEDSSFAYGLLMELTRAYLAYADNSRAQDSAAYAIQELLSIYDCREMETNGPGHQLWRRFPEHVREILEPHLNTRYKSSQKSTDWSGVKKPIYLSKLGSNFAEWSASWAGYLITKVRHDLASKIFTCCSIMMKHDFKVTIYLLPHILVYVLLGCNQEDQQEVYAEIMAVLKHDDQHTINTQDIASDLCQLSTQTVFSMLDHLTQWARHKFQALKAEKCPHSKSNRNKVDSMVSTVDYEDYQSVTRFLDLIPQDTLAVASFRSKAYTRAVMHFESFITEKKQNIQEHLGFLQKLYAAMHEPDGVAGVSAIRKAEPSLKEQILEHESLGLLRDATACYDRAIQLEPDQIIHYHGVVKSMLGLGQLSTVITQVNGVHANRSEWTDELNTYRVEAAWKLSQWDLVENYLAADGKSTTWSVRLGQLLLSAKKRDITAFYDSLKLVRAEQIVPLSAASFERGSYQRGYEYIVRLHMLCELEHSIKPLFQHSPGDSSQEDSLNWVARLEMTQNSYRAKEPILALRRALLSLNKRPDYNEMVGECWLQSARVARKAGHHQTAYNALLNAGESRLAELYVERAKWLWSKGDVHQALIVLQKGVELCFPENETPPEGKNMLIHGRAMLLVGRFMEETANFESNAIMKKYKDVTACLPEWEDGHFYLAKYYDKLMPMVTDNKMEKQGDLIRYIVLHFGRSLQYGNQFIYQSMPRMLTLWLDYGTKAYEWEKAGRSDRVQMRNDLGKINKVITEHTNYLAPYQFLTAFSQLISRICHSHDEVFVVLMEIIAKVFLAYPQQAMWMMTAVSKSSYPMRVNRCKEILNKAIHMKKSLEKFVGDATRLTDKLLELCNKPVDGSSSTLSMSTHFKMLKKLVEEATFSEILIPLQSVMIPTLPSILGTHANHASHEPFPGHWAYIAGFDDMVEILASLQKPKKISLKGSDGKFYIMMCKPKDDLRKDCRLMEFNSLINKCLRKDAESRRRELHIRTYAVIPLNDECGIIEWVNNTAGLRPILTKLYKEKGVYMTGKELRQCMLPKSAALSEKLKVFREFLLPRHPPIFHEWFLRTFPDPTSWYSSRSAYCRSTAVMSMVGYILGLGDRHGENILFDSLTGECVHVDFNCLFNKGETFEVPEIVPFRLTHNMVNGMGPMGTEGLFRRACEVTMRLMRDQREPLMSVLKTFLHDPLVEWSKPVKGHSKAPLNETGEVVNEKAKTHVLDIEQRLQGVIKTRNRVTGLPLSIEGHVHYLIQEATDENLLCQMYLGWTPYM
T1 sequence (Q06187 whole entry, canonical isoform): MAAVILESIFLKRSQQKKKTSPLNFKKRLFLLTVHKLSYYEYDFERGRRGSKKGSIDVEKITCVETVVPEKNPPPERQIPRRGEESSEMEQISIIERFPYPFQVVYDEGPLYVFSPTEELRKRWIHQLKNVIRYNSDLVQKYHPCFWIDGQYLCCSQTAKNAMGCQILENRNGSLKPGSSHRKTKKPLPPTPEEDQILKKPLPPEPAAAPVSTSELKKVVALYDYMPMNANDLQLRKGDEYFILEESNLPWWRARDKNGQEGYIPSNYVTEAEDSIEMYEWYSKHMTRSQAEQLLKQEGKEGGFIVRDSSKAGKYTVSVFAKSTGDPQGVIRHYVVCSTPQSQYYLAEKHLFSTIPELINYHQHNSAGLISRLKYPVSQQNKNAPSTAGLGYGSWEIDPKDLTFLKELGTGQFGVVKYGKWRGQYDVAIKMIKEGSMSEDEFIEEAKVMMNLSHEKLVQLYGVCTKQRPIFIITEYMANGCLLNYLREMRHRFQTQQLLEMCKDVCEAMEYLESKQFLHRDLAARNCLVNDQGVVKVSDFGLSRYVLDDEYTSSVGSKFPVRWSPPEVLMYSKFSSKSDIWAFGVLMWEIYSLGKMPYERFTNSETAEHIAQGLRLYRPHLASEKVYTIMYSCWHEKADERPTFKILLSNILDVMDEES
Phosphatidylinositol 4,5-bisphosphate 3-kinase catalytic subunit delta isoform (Homo sapiens), sequence (O00329 whole entry, canonical isoform): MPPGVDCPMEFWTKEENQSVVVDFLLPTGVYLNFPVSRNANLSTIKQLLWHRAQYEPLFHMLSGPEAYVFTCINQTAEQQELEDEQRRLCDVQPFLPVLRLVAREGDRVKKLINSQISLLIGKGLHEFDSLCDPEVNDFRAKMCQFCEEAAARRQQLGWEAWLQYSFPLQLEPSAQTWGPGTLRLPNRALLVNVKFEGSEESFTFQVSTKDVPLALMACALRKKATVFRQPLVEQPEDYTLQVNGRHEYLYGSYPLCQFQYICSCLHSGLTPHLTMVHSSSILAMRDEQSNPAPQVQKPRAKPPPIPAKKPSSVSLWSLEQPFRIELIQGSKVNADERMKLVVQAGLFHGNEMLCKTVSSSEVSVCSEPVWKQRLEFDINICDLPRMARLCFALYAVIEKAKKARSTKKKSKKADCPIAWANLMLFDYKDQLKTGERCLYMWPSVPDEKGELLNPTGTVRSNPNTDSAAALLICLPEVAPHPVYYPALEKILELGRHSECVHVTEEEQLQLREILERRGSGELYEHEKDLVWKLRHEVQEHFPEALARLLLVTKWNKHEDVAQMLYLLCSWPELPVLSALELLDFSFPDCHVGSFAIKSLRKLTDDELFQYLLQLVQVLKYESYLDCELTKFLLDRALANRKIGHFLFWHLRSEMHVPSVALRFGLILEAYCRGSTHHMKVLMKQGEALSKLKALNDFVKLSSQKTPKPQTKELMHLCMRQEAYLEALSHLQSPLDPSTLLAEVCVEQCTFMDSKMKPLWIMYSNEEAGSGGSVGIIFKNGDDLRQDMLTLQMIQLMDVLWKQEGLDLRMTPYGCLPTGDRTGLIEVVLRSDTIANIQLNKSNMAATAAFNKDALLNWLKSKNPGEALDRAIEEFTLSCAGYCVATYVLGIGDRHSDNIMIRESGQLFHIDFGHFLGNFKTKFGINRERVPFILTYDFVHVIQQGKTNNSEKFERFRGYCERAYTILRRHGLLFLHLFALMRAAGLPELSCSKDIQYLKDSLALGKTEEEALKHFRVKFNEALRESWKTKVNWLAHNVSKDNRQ
Phosphatidylinositol 4,5-bisphosphate 3-kinase catalytic subunit delta isoform, sequence (O00329 whole entry, canonical isoform): as above

SMILES	IC50 [1]	other results
Nc1ncnc2c1c(-c1ccc(Br)c(O)c1)nn2C1CCc2ccccc21 (configuration not stated)	1.86 µM	–
Nc1ncnc2c1c(-c1cnc3cc[nH]c3c1)nn2C1CCc2ccccc2C1 (racemic)	4.62 µM	–
Nc1ncnc2c1c(-c1cnc3[nH]ccc3c1)nn2C1CCc2ccccc2C1 (stereo in doubt; 1)	0.304 µM	–
Nc1ncnc2c1c(-c1cnc3[nH]ccc3c1)nn2C1CCCC1	1.42 µM	–
Nc1ncnc2c1c(-c1ccc3[nH]ccc3c1)nn2C1CCc2ccccc2C1 (racemic)	1.59 µM	–
CNCc1ccc(-c2cc(-c3nc(-c4ccc(S(=O)(=O)C(C)C)cc4)cnc3N)on2)cc1 [BERZOSERTIB]	–	remaining at 0.5 h, 1 µM [2]: 71%; remaining at 0.5 h, 1 µM [3]: 77%; remaining at 0.5 h, 1 µM [4]: 80%
Nc1ncnc2c1c(-c1cnc3[nH]ccc3c1)nn2C1CCc2ccccc2C1 (racemic) [listing 1 of 2 here]	0.212 µM	–
Nc1ncnc2c1c(-c1cnc3[nH]ccc3c1)nn2C1CCc2ccccc2C1 (stereo in doubt; 1')	0.158 µM	–
Nc1ncnc2c1c(-c1cnc3[nH]ccc3c1)nn2C1CCc2ccccc2C1 (racemic) [listing 2 of 2 here]	–	inhibition [7]: 52%; inhibition [8]: 24%
CS(=O)(=O)N1CCC(n2nc(-c3cnc4[nH]ccc4c3)c3c(N)ncnc32)CC1	1.32 µM	–
Nc1ccc(-c2nn(C3CCc4ccccc4C3)c3ncnc(N)c23)cn1 (racemic)	19.3 µM	–

Second part, led by results:

IC50 [1]	SMILES	other results
> 30 µM	Nc1ncnc2c1c(-c1cccnc1)nn2C1CCc2ccccc2C1 (racemic)	–
0.547 µM and 0.269 µM	Nc1nc2c(s1)CC(n1nc(-c3cnc4[nH]ccc4c3)c3c(N)ncnc31)CC2 (configuration not stated)	–
19.1 µM	Nc1ncnc2c1c(-c1ccc(N3CCCC3)nc1)nn2C1CCc2ccccc2C1 (racemic)	–
22.4 µM	Nc1ncnc2c1c(-c1cnc3[nH]c(=O)ccc3c1)nn2C1CCc2ccccc2C1 (racemic)	–
0.58 µM	Cn1ccc2cc(-c3nn(C4CCc5ccccc5C4)c4ncnc(N)c34)cnc21 (racemic)	–
> 30 µM	c1ccc2c(c1)CCC(n1nc(-c3cnc4[nH]ccc4c3)c3cncnc31)C2 (racemic)	–
> 30 µM	Nc1ccnc2c1c(-c1cnc3[nH]ccc3c1)nn2C1CCc2ccccc2C1 (racemic)	–
3.56 µM	Nc1ncnc2c1c(-c1ccc(Br)c(O)c1)nn2C1Cc2ccccc2C1	–
0.654 µM	Nc1ncnc2c1c(-c1cnc3[nH]ccc3c1)nn2C1Cc2ccccc2C1	–
2.63 µM	Nc1nc2c(s1)CC(n1nc(-c3cc(F)c4[nH]ccc4c3)c3c(N)ncnc31)CC2 (configuration not stated)	IC50 [5]: 0.022 µM; IC50 [6]: 0.307 µM
> 30 µM	Nc1ncnc2c1c(-c1c[nH]c3ncccc13)nn2C1CCc2ccccc2C1 (racemic)	–
